Results published in publication PMC3004914, “Classification of Drugs Based on Properties of Sodium Channel Inhibition: A Comparative Automated Patch-Clamp Study” (PLoS ONE, 2010).
Where two headings read alike, the source gives them in different places.

Tests used:
[1] = target: T1, rNav1.2 sodium channels (HEK-293 cells) (Rattus norvegicus, UniProt P04775); test: 5 Hz train protocol, QPatch automated patch-clamp; format: cell-based; conditions: for inhibition at 300 µM / potency estimated from few doses / inhibition at 100 µM: HEK293; for inhibition at 300 µM / inhibition at 100 µM: read-out: Inh (inhibited fraction); for potency estimated from few doses: −90 mV, read-out: IC50;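 for UD (use-dependence of the inhibition): UD = (A3/A4)/(A1/A2) as ratios of peak amplitudes from Figure 1A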
T1 sequence (P04775 whole entry): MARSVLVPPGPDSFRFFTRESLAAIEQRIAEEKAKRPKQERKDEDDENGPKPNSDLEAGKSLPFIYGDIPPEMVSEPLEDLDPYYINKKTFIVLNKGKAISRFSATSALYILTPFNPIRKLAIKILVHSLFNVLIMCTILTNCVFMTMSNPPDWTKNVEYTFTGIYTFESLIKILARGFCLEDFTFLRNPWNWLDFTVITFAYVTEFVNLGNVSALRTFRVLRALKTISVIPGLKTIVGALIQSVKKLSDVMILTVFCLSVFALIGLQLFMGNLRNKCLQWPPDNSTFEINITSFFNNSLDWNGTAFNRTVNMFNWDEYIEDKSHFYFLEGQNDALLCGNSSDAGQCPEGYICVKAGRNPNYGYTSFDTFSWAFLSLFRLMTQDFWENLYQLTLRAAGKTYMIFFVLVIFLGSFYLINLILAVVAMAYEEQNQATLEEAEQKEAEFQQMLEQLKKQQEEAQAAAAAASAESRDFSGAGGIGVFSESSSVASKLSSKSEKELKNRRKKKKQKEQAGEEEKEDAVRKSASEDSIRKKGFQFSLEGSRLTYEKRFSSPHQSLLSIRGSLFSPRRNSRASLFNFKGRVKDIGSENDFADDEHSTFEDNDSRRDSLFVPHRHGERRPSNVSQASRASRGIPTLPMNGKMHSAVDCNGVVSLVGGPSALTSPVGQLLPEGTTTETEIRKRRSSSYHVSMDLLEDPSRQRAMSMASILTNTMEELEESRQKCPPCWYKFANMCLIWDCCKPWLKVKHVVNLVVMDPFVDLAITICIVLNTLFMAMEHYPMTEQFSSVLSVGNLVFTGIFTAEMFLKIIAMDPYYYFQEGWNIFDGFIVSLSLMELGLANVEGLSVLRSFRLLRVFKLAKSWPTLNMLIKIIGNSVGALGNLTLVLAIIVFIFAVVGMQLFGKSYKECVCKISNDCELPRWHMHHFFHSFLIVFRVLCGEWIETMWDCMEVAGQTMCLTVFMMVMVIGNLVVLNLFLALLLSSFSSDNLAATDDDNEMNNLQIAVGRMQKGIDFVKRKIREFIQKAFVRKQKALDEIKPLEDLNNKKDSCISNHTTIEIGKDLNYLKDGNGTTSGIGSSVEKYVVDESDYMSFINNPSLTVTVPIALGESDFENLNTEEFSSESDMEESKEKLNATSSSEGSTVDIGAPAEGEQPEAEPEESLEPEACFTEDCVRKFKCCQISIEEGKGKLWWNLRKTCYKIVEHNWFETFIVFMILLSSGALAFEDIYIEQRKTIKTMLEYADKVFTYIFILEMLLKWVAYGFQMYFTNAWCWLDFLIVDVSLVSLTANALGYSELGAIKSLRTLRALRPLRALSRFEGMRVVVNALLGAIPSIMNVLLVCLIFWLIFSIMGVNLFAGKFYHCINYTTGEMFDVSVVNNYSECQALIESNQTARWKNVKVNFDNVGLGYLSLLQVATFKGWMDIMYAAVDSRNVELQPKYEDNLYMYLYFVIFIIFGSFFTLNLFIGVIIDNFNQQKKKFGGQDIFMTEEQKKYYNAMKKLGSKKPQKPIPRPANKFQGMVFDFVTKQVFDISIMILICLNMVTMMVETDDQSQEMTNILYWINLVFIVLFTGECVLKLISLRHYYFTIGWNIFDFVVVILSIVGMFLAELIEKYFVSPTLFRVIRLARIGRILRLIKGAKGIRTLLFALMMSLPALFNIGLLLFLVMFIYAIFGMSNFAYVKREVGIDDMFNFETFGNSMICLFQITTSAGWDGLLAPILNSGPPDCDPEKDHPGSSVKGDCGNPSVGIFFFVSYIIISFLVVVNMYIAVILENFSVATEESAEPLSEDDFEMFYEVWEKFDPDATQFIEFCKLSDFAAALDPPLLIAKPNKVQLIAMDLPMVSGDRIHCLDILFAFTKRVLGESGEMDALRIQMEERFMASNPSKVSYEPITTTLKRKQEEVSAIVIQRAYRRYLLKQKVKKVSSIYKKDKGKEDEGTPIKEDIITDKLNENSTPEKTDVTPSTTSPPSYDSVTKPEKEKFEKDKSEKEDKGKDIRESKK
Text: The dynamics of the onset and offset of inhibition was monitored using 5 Hz trains of five depolarizing pulses from a holding potential of −90 mV to −10 mV. The trains were repeated every 20 s. Drugs were applied after 10 control trains and 10 trains were delivered in the presence of the drug. The drug was then washed out, and the 10 trains were repeated.
We measured inhibition (Inh; from which we calculated IC50 values as described in Materials and Methods), reversibility of inhibition (Rev) and use-dependence (UD), as well as time constant of onset (τon) and offset (τoff). The calculation of IC50, quantification of Rev and UD, and the determination of time constants are illustrated in Figure 1A. Because τon should be concentration-dependent if we assume a single binding reaction, we excluded it from the analyses. […] Comments on the interpretation of these properties (Rev, […] and UD) are in Results S1.
(§1) A)–D) Peak amplitudes of evoked currents (5 Hz trains of 5 depolarizations from −90 to −10 mV) are plotted against time. Black dots: Control. Grey dots: Drug perfusion. […] Calculation of properties of inhibition is illustrated. […] E) Calculation of Kr and Ki values from steady-state availability curves.
(§2) HEK-293 cells stably expressing rNav1.2 sodium channels were obtained from NeuroSearch (Ballerup, Denmark).
(§3) Cells were automatically prepared for application to the chips (centrifuged and washed twice, then resuspended in extracellular solution) as described previously. Composition of the extracellular solution was: (in mM): 140 NaCl, 3 KCl, 1 CaCl2, 1 MgCl2, 0.1 CdCl2, 20 TEA-Cl, 5 HEPES, adjusted to pH 7.3, Osmolality: ∼320 mOsm.
(§4) All electrophysiological experiments were conducted on Qpatch-16 or QPatch HT instruments using QPlate™ chips. For a detailed description of the instrument and the patch-clamp chips see [37], [38]. Data were sampled at a frequency of 25 kHz and filtered at 5 kHz. […] The amplifier was controlled and the data were collected by the Sophion QPatch client software. For initial data analysis the QPatch software was used. Built-in amplifiers provide an improved method for series resistance compensation. Leak subtraction (based on a standard P/n protocol) was used to subtract the capacitive component of currents.
From this protocol we extracted five parameters, as illustrated in Figure 1A. We calculated inhibition of a single “cc” concentration: Inh = (amplitudectr – amplitudedrug)/amplitudectr.

[2] = human plasma, cited from earlier work
[3] = target: T1, rNav1.2 sodium channels (HEK-293 cells); test: steady-state inactivation protocol (availability curves), QPatch automated patch-clamp; format: cell-based; conditions: 100 µM
Text: as §1
Standard steady-state inactivation protocols were used to measure the shift of steady-state availability curve caused by the drugs. Currents were evoked by a 10 ms test pulse to −10 mV, preceded by 400 ms pre-pulses from −150 to −30 mV. […] Because the inhibition at hyperpolarized potentials (Inh−150), and the shift of the availability curves (ΔV1/2) are both concentration-dependent properties, we calculated affinities to hyperpolarized and depolarized states (“resting state affinity”: Kr, and “inactivated state affinity”: Ki), which, on the other hand, are concentration-independent characteristics of individual drugs. Calculation of Kr and Ki values are described in Materials and Methods, and illustrated in Figure 1E. State-dependence (SD) was quantified as the ratio Kr/Ki.
as §2, §3, §4
Inactivated affinity (Ki) values were calculated assuming a simple four-state model of drug binding and channel gating, using two separate methods: (1) from the shift of the availability curve (ΔV1/2), the slope of the Boltzmann fit of the availability curve (k) and Kr, using the formula described by Bean, Cohen and Tsien (Ki−ΔV1/2; see Figure 1E), or (2) from the apparent affinity (Kapp) at a certain pre-pulse potential, which was calculated from the inhibition (e.g. Inh−60) as described above, and the availability (h) at the same pre-pulse potential, using the formula from Kuo and Bean (Figure 1E). […] (Arithmetic means and SEM values are given in Results S7.)

[4] = 300 μM, −90 mV holding potential, 5 Hz train
[5] = calculated from Inh at single concentration 300 μM, 5 Hz train
[6] = 100 μM, −90 mV holding potential, 5 Hz train
[7] = calculated from Inh at single concentration 100 μM, 5 Hz train

Structure (SMILES)	inhibition at 100 µM [1, 6]	potency estimated from few doses [1, 7]	plasma conc. ([2]; as printed in each cell)	plasma conc. ([2]; as printed in the µg/ml cell)	also measured
CCN(CC)CCNC(=O)c1ccc(N)cc1 [PRC, Procainamide]					inhibition at 300 µM [1, 4]: 14%; potency estimated from few doses [1, 5]: 2010 µM
C#CCN(C)[C@H](C)Cc1ccccc1 [DPR, R-(-)-Deprenyl]					IC50 compared to plasma concentration [1]: exceedingly high; Inh (inhibited fraction) [1, 4]: 0.22
O=C(CCNNC(=O)c1ccncc1)NCc1ccccc1 [NIA, Nialamide]	3%	3230 µM			
CNCCC(Oc1ccc(C(F)(F)F)cc1)c1ccccc1 (centres unmarked) [FLX, Fluoxetine]			0.38 [44] µg/ml	1.099 µM	
CN[C@H]1CC[C@@H](c2ccc(Cl)c(Cl)c2)c2ccccc21 [SRT, Sertraline]			0.14 [44] µg/ml	0.409 µM	
CN1CCN2c3ncccc3Cc3ccccc3C2C1 (centres unmarked) [MRZ, Mirtazapine]	43%	132 µM			inhibition at 100 µM ([3]; HEK293, read-out: Inh (inhibited fraction) at holding potential −150 mV): 24%; Ki ([3]; arithmetic mean, read-out: Ki-Kapp arith): 7.94 µM; Ki ([3]; arithmetic mean, read-out: Ki-ΔV1/2 arith): 5.65 µM; Kd ([3]; arithmetic mean, read-out: Kr arith): 317 µM; Kd ([3]; geometric mean, from Inh at −150 mV, read-out: Kr (resting state affinity)): 317 µM; Ki ([3]; geometric mean, from apparent affinity, read-out: Ki−Kapp (inactivated state affinity)): 7.62 µM; Ki ([3]; geometric mean, from shift of availability curve, read-out: Ki−ΔV1/2 (inactivated state affinity)): 5.63 µM; τon ([1]; 100 μM): 3.99 s; UD (use-dependence of the inhibition) ([1]; 100 μM, 5 Hz train): 1.14; τoff ([1]; 100 μM, 500 s assigned where irreversible): 7.47 s; Rev (reversibility) ([1]; 100 μM, Rev = A5/A1 after washout): 0.89
CCN(CC)CCNC(=O)c1cc(S(C)(=O)=O)ccc1OC [TIA, Tiapride]			0.56 [51] µg/ml	1.535 µM	inhibition at 300 µM [1, 4]: 7%; potency estimated from few doses [1, 5]: 3990 µM
CC1(C)O[C@@H]2[C@@H](CO[C@@]3(COS(N)(=O)=O)OC(C)(C)O[C@@H]23)O1 [TOP, Topiramate]			5.5 [44] µg/ml	16.21 µM	inhibition at 300 µM [1, 4]: 7%; potency estimated from few doses [1, 5]: 3990 µM
CNC1(C)C2CCC(C2)C1(C)C (centres unmarked) [MEC, Mecamylamine]	5%	2760 µM	0.02 [60] µg/ml	0.118 µM	IC50 compared to plasma concentration [1]: exceedingly high
O=C(NCCN1CCOCC1)c1ccc(Cl)cc1 [MCL, Moclobemide]	9%	1010 µM	0.29 [49] µg/ml		
O=c1n(CCCN2CCN(c3cccc(Cl)c3)CC2)nc2ccccn12 [TRZ, Trazodone]			1.5 [44] µg/ml	3.673 µM	
